The test system of one data set is PI-3K. Description: PI-3 kinase activity assay. The class given is cell-based, rat. The settings on record: exogenous lipid. The protocol: Cells after stimulation in serum-free DMEM/F-12 were lysed with ice-cold lysis buffer containing 1% (vol/vol) NP-40,100 mM NaCl, 20 mM Tris (pH 7.4), 10 mM iodoacetamide, 10 mM NaF, 1 mM sodium orthovanadate, 1 mM […], 1 μg/ml leupeptin, 1 μg/ml antipain, 1 mg/ml aprotinin, and 1 μg/ml pepstatin A. Lysates were incubated at 4° C. for 15 min, followed by centrifugation at 13,000 g for 15 min. The supernatant was pre-cleared with protein G-Sepharose beads (Pharmacia Biotech) for 1 h at 4° C. followed by the addition of 1 μg/ml p85α monoclonal antibody. After 2 h of incubation at 4° C., protein G-Sepharose beads were added and the resulting mixture was further incubated for 1 h at 4° C. The immunoprecipitates were washed twice with lysis buffer, once with phosphate-buffered saline (PBS), once with 0.5 M LiCl and 100 mM Tris (pH 7.6), once in water, and once in kinase buffer (5 mM MgCl2, 0.25 mM EDTA, 20 mM HEPES, pH 7.4). PI-3kinase activity was determined as already described (Ward et al., 1992; Pahan et al., 1999) using a lipid mixture of 100 μl of 0.1 mg/ml PI and 0.1 mg/ml phosphatidylserine dispersed by sonication in 20 mM HEPES (pH 7.0) and 1 mM EDTA. The reaction was initiated by the addition of 20 of [γ-32P] […]

Data set [1] has as its system primary cultured rat neocortical explants. Conditions: cited from earlier work.
Data set [2] has as its system rat aortic vascular smooth muscle cells. Conditions: cited from earlier work.
For data set [3], the system named is primary cultured rat neocortical explants. Conditions: cited from earlier work. This is another data set of the same source.
A further data set has as its system GFAP. Description: GFAP expression (reactive astrogliosis) at the lesion epicenter following SCI.
The subject of another data set is IL-1β. Kind of data set: IL-1β expression at the lesion epicenter following SCI.
The next data set has as its system TNFα. Kind of data set: TNFα expression at the lesion epicenter following SCI.
The next data set concerns neurons. Description: Fluorescent TUNEL / NeuN staining of spinal cord sections following SCI. The class given is in vivo, rat. The protocol: TUNEL assay was carried out using APOPTAG Fluorescein In Situ Apoptosis Detection Kit (Serological Corporation, Norcross, Ga.) according to manufacturer's protocol. For double labeling, sections were incubated with mouse anti-neuronal nuclei 1:100 (NeuN, Chemicon, USA). Sections were incubated with TRITC conjugated […] 1:100 (Sigma), mounted in mounting media and visualized by fluorescence microscopy.

The conditions of data set [4]: cited from earlier work.
The test system of a further data set is rat SCI model. Description: BBB locomotor rating, rat SCI model. The class given is in vivo. The text has this:
Sprague-Dawley female rats (225-250 g weight) were purchased (Harlan laboratories, Durham, N.C.) for induction of SCI. All rats were given water and food pellets ad libitum and maintained in accordance with the ‘Guide for the Care and Use of Laboratory Animals’ of the US Department of Health and Human Services (National Institutes of Health, Bethesda, Md., USA). The inventors have used a clinically relevant weight-drop device for the induction of SCI in rats as described earlier (Gruner, 1992). Briefly, rats were anesthetized by intraperitoneal (i.p.) administration of ketamine (80 mg/kg) plus xylazine (10 mg/kg) followed by laminectomy at T12. While the spine was immobilized with a stereotactic device, injury (30 g/cm force) was induced by dropping a weight of 5 gm from a height of 6 cm onto an impounder gently placed on the spinal cord. Sham operated animals underwent laminectomy only. Upon recovery from anesthesia, animals were evaluated neurologically and monitored for food and water intake. However, no prophylactic antibiotics or analgesics were used in order to avoid their possible interactions with the experimental therapy of SCI.
Assessment of neurological (functional) recovery was performed by an open-field test using the 21-point Basso, Beattie, Bresnahan (BBB) locomotor rating scale (Basso et al., 1996) until Day 15 post-SCI. […]

Another data set has as its system iNOS. Description: iNOS expression at the lesion epicenter following SCI.

“Also recorded” adds a separate entry of the source.

On to Lactosylceramide [LacCer], for which the “Reversal of DMS-mediated inhibition of PI-3K activation” value with PI-3K is reported as “could not reverse”.

Take `CCCCCCCCCC(=O)NC(CN1CCOCC1)C(O)c1ccccc1.Cl` [PDMP, D-threo-1-Phenyl-2-decanoylamino-3-morpholino-1-propanol.HCl]: in [1], the Neurite outgrowth entry is “inhibited”. Besides, in data set [2], the “IL-1β stimulated nitric oxide release” value was “increased”. Also, in [3], the GSL biosynthesis entry is on record as “inhibited”. Also, the “GFAP, double immunofluorescence” value with GFAP (24 h post-SCI) is on record as “significantly reduced; also recorded: significantly attenuated”. Besides, the “GFAP mRNA and protein expression” value in the data set with GFAP (PDMP 20 mg/kg post-SCI) was “effectively attenuated”. Also, the “IL-1β mRNA levels” value with IL-1β (4 h post-SCI) is “markedly inhibited”. For the same compound, the “IL-1β protein levels, immunofluorescence” value in the data set with IL-1β (post-SCI (sections extracted 4 h)) is on record as “significantly suppressed”. For the same compound, the “TNFα mRNA levels” value with TNFα (1 h post-SCI) is recorded as “markedly inhibited”. Moreover, the “TNFα protein levels, immunofluorescence” value in the data set on TNFα (post-SCI (sections extracted 1 h)) is “significantly suppressed”. In addition, the “Apoptosis of neurons (TUNEL/NeuN)” value in the data set on neurons (24 h post-SCI) was “provided protection”. For the same compound, the “Effect on neuronal survival in sham operated animals” value in the data set on neurons (sham operated, PDMP 20 mg/kg) is given as “no adverse effect”. Moreover, the Solubility in water result in [4] was “soluble in water”. Further, the BBB score in the data set with rat SCI model (Day 3 post-SCI, PDMP 20 mg/kg i.p. at 10 min, 24 h, 48 h, 72 h) is listed as 6.9±0.2; with rat SCI model (Day 15 post-SCI, PDMP treatment stopped at Day 3), 13.9±0.1. In addition, in the data set on iNOS (12 h following SCI), the “iNOS mRNA (real time PCR) and protein expression” value is “markedly suppressed”. The “iNOS expression, double immunofluorescence” value in the data set on iNOS (24 h post-SCI) is recorded as “significantly reduced”.

The record behind these values is patent publication US20110059909A1, “METHODS FOR TREATING INFLAMMATORY DISORDERS” (priority 2004, published 2011).
